Results from patent publication EP2229935A1, “Peptide derivatives or pharmaceutically acceptable salts thereof, method for producing the same, use of said derivatives and pharmaceutical composition” (Nebolsin, Vladimir Evgenievich, priority 1997, dated 1999).
Marks after values point to notes of the source that are not given here.

Key:
white mongrel male rats = test: Carrageenan paw edema, oral administration (series I); format: in vivo
Method: Experiment was carried out on white mongrel male rats weighing 280-300 g. Carrageenan-induced edema was caused according to the method of Winter et al. [[inter et al. In: De Rosa M., Giroud J.P., Willoughby D.A. Studies of the mediators of the acute inflammatory reponse induced in rats in different sites by carrageenan and turpentine. […] Paw volume measurement was done using a plethysmograph (Ugo Basile) 1, 3 and 4 hours after carrageenan administration. Inhibition of inflammatory reaction expressed in percent, was calculated according to the formula: 100-[(R-L(exper.))/(L):(R-L(control))/(L)x100](%) [formula] where R - the right paw volume, L - the left paw volume.
Series I of experiment. […] The reference drug Naproxene was once administered at a dose 20 µg/kg 1 hour before edema induction. Each group included 10 animals.

P-450 and B5 cytochromes = test: Hepatic content of P-450 and B5 cytochromes (microsomal liver fraction); format: in vivo, guinea pigs; conditions: guinea pig liver microsomes; administered three times 72, 48 and 24 hours before
Method: Change in hepatic monooxygenase system was studied on mongrel male guinea pigs with initial mass 250-300 g; each group included 12 animals. […]. The content of P-450 and […] cytochromes was measured according to the published method [Omura T., Scato R. The monooxide binding pigment of liver microsomes. 11. Solubilization, purification and properties. J. Chem. (1964), Vol. 239, pp. 2379-2385] in microsomal liver fraction, isolated using differential centrifugation method [Ahokas J., Pelkonen O., Karkin N. Charcaterisation of BP-hydroxylase of Trout-liver. Cancer Res. (1977), Vol. 37, pp. 3737-3743]. The priority method {Izotov M.V., Scherbakov V.M., Devichensky V.M. et al. The method of determining the content of P-450 cytochrome isoenzymes in liver microsomes. The inventor's certificate No 1,488,738. B.I. (1989), No 3.-6.06.09, ICI, 01. - No 33/15, No 33/48]. Microsomal protein content was determined using the modified Lowry method [Hartree E. Determination of protein: a modification of the Lowry method, that gives a linear photometric responces. Ann. Biochem. (1972), Vol. 48, pp. 422-427].

Wistar male rats = test: Blood glucose level in intact rats; format: in vivo; conditions: for Blood glucose level (mg/dl) 2 hours after / Blood glucose level (mg/dl) 5 hours after: deprived of food; for Blood glucose level (mg/dl) 2 hours before: intragastral four days
Method: Experiments were carried out on Wistar male rats weighing 250-300 g. Experimental diabetes was induced with single intravenous injection of streptozotocine (the Synthez cooperative enterprise at the IMBG of the Academy of Sciences of Ukraine) at a dose 42 mg/kg to rats which were preliminarily fasting for 24 hours with access to food immediately following injection. Rats were selected for experiment 2 weeks after diabetes induction with glycemia 120-180 mg/dl. Each group included 12 animals.
The compounds were intragastrally administered to intact animals and to rats with streptozotocine diabetes for four days at daily doses 50 µg/kg and 500 µg/kg in water solution at a rate of 1 ml per 200 g of body mass. Intact animals were given the compounds III and XLIV, and rats with induced diabetes were given the compound XLIV. Check blood glucose level determination was done at the day of experiment, then animals were administered the test compounds and were deprived of food. The control animals received a respective water volume. Effect was estimated by change in blood glucose level in 2 and 5 hours. Then animals received forage and 24 hours after the last drug administration blood was again sampled for examination. 0.1 ml of blood were collected from the tail vein. Glucose level was determined using the o-toluidine method.
Glucose level was calculated in mg/dl using standard glucose solutions. Then the degree of change in glucose level in relation to the initial level was determined for each animal with its expression in percent from the initial level. Final calculation was performed for each group of animals. Each group included 10 animals.

[1] = tested on: Lewis pulmonary carcinoma (LLC); test: Lewis pulmonary carcinoma growth; format: in vivo; conditions: mice with LLC, day 12
Method: Experiments were carried out on male mice with initial body mass 18-20 g. Each group included 10 animals. […] Administration of compounds II, III, IX, X, XII, XIV, XV, XVI, XVII, XIX, XXII, XLVII in drinking water was commenced 24 hours following transplantation and continued till the end of experiment. Effect of the compounds on Lewis rat pulmonary carcinoma (LLC) was estimated by day 12 of experiment by change in tumor volume expressed in mm^3.

[2] = tested on: peripheral blood neutrophils; test: Activity of peripheral blood neutrophils in mice with LLC; format: in vivo, C57BL/6 female mice; conditions: compound III 500.0 µg/kg for 10 days
Method: Experiments were carried out on C57BL/6 female mice with intramuscularly transplanted LLC carcinoma. Activity of neutrophils was measured by days 11 and 14.
• control - animals with LLC tumor, 10 animals; • animals with LLC tumor + compound III at a dose 500.0 µg/kg for 10 days. 8 animals; • animals with LLC tumor + Cyclophosphane 5 times at a dose 20.0 mg/kg (in 48 hours) for 10 days, 8 animals; • compound III and Cyclophosphane according to the above dosage regimen, 8 animals.
Experiment duration was 14 days.

mongrel guinea-pigs = conditions: po, 0.05 mg/kg
[3] = intragastral four times 50 µg/kg

Molecule | Blood glucose level (mg/dl) 24 hours after (Wistar male rats; 50 µg/kg) [mg/dL] | Blood glucose level (mg/dl) 24 hours after (Wistar male rats; 500 µg/kg) [mg/dL] | Blood glucose level (mg/dl) 2 hours after (Wistar male rats; 50 µg/kg) [mg/dL] | Blood glucose level (mg/dl) 5 hours after (Wistar male rats; 50 µg/kg) [mg/dL] | Blood glucose level (mg/dl) 2 hours after (Wistar male rats; 500 µg/kg) | Blood glucose level (mg/dl) 5 hours after (Wistar male rats; 500 µg/kg) | Blood glucose level (mg/dl) 2 hours before (Wistar male rats; 50 µg/kg) [mg/dL] | Blood glucose level (mg/dl) 2 hours before (Wistar male rats; 500 µg/kg) [mg/dL] | further results
O=C(O)CCCC(=O)NCCc1c[nH]cn1 [compound III, N-GLUTARYLHISTAMINE] | 66.5 ± 3.3 | 73.1 ± 3.4 | 58.5 ± 5.9 | 70.8 ± 5.5 | 69.9 ± 2.8*^2 mg/dl | 72.6 ± 1.5*^2 mg/dl | 84.2 ± 6.1 | 71.3 ± 4.0 | Inflammation inhibition (%) (white mongrel male rats; [3]): 30%; Volume increment (white mongrel male rats; [3]): 0.49 ± 0.07; Volume of paws (conditional units) left (white mongrel male rats; [3]): 1.23 ± 0.41 conditional units; Volume of paws (conditional units) Right (white mongrel male rats; intragastral four times 50 µg/kg 72, 48, 24 and 1 hour before): 1.72 ± 0.27 conditional units; B5 /P-450 (P-450 and B5 cytochromes): 0.97*; B5 cytochrome nM/mg of protein (P-450 and B5 cytochromes): 1.00 ± 0.03 nM/mg of protein; P-450B cytochromes nM/mg of protein (P-450 and B5 cytochromes): 0.72 ± 0.02 nM/mg of protein; P-450B/p-450L (P-450 and B5 cytochromes): 2.32**; Growth inhibition percent ([1]; compound in drinking water): 53%; Tumor volume (mm^3) ([1]; compound in drinking water from 24 hours after transplantation): 1249 ± 168** mm^3; Percent of active neutrophils ([2]; Background): 20.1 ± 2.7%; Percent of active neutrophils ([2]; day 11): 9.3 ± 1.7%; Percent of active neutrophils ([2]; day 14): 15.3 ± 4.3%; Anaphylactic index (mongrel guinea-pigs): 0.83*; Seizures in percent (mongrel guinea-pigs): 13,3* percent
γ-L-glutamylhistamine [compound XLIV] | 79.9 ± 5.2 | 83.7 ± 4.0 | 60.8 ± 4.0 | 64.0 ± 3.1 | 64.8 ± 4.2 mg/dL | 65.9 ± 3.9 mg/dL | 81.2 ± 3.8 | 80.8 ± 2.7 | 
